The source of these data is patent US11465997B2, “Synthesis of disorazoles and analogs thereof as potent anticancer agents” (WILLIAM MARSH RICE UNIVERSITY, priority 2017, dated 2022).

Where two headings read alike, the source gives them in different places. Non-standard residues stand in square brackets, D forms with d. Residues, ends and D or L forms follow the SMILES beside them. *: point of attachment. Dolaproine = CO[C@@H]([C@@H]1CCCN1)[C@@H](C)C(=O)O; Dil = CC[C@H](C)[C@H](NC)[C@@H](CC(=O)O)OC; X1 = C[C@@H](N*)[C@@H](O)c1ccccc1; NMeV = CN[C@H](C(=O)O)C(C)C

Data set [1] in a line: solubility of the product in solvents. It counts as physicochemical. The following applies: e.g., MeOH, DMSO, DCM, CHCl3, MeCN. How it is done:
To a stirred solution of compound 108 (9.0 mg, 9.0 μmol, 1.0 equiv) in DMF (300 μL) and H2O (2.3 μl, 130 μmol, 14 equiv) was added TASF (12 mg, 45 μmol, 5.0 equiv) and the reaction mixture was heated at 40° C. and stirred for 48 h. The resulting mixture was filtered through a small silica pad (10 cm, SiO2, hexanes:EtOAc 1:1→0:1). The resulting fractions containing the desired products were combined, concentrated and purified by flash column chromatography (SiO2, hexanes:EtOAc 1:1→1:4→0:1) to yield bis-(cp-thiazolyl)-disorazole B1 (7, 3.0 mg, 4.2 μmol, 46% yield) as a white foam. […] 86: Rf=0.15 (hexanes:EtOAc, 2:3); IR (film): vmax=3439, 2922, 2852, 1714, 1629, 1212, 1104, 964 cm^−1; ^1H NMR (600 MHz, DMSO-d6 with DCM) δ 8.37 (s, 2H), 6.45-6.37 (m, 2H), 6.21 (d, J=11.9 Hz, 2H), 6.15 (t, J=11.8 Hz, 2H), 5.66 (dd, J=14.1, 11.0 Hz, 2H), 5.60-5.49 (m, 4H), 5.39-5.31 (m, 2H), 5.23-5.11 (m, 4H), 4.64 (d, J=4.6 Hz, 2H), 3.73 (t, J=5.3 Hz, 2H), 2.70 (q, J=12.0 Hz, 2H), 2.29-2.22 (m, 2H), 2.22-2.13 (m, 2H), 1.82-1.73 (m, 2H), 1.64 (d, J=4.9 Hz, 6H), 0.96 (s, 6H), 0.88 (s, 6H), 0.60 (dd, J=10.4, 4.9 Hz, 4H) ppm; ^13C NMR (151 MHz, DMSO-d6 with DCM) δ 163.45, 159.37, 145.61, 142.90, 133.36, 131.70, 131.53, 127.55, 126.37, 125.78, 123.99, 118.18, 76.27, 75.30, 41.33, 27.65, 23.24, 19.05, 19.03, 18.95, 17.63, 16.64. ppm; HR-MS (ESI-TOF): calcd for C44H54O6N2S2Na^+ [M+Na]^+: 793.3316. […]

The subject of data set [2] is MES SA DX (MES SA cell line with marked multidrug resistance). The data set is described as follows: 72 h killing (cytotoxicity) assay, MES SA DX. The following applies: MES DX (MES SA DX) cells, multidrug resistant, read-out: Cytotoxic activity IC50. It counts as cell-based, human.
Data set [3] is described as follows: 72 h killing (cytotoxicity) assay, HEK 293T. It counts as cell-based. The following applies: human; 293T (HEK 293T) cells; read-out: Cytotoxic activity IC50.
Data set [4] deals with MES SA uterine sarcoma cell line. As to the kind of experiment: 72 h killing (cytotoxicity) assay, MES SA. Format: cell-based, human. The following applies: MES SA cells, read-out: Cytotoxic activity IC50.
Data set [5] relates to prostate cancer cell lines. The following applies: Jansen et al., 1994 and Elnakady et al., 2004, read-out: IC50 against prostate cancer cell line; cited from earlier work.
The next data set has as its system lung cancer cell lines. The following applies: Jansen et al., 1994 and Elnakady et al., 2004, read-out: IC50 against lung cancer cell line; cited from earlier work.
Data set [6] concerns ovarian cancer cell lines. The following applies: Jansen et al., 1994 and Elnakady et al., 2004, read-out: IC50 against ovarian cancer cell line; cited from earlier work.

`C/C=C/[C@H](O)C(C)(C)[C@@H]1C/C=C\[C@H]2C[C@H]2/C=C/C=C\c2nc(cs2)C(=O)O[C@H](C(C)(C)[C@@H](O)/C=C/C)C/C=C\[C@H]2C[C@H]2/C=C/C=C\c2nc(cs2)C(=O)O1` [compound 86, (2Z,4E,6S,8R,9Z,12S,19Z,21E,23S,25R,26Z,29S)-12,29-Bis[(3S,4E)-3-hydroxy-2-methylhex-4-en-2-yl]-13,30-dioxa-17,34-dithia-35,36-diazapentacyclo[30.2.1.1^15,18.0^6,8.0^23,25]hexatriaconta-1 (35),2,4,9,15,18 (36),19,21,26,32-decaene-14,31-dione]: in data set [1], the “solubility in pure solvents” value was “insoluble in most pure solvents”.
For orientation: IC50 means the concentration needed to halve the response being measured. For `C/C=C/[C@H](O)C(C)(C)[C@@H]1C\C=C/C=C\C=C\[C@H](OC)Cc2nc(co2)C(=O)O[C@H](C(C)(C)[C@@H](O)/C=C/C)C/C=C\[C@H]2C[C@H]2/C=C/C=C\c2nc(co2)C(=O)O1` [compound 5, (2Z,4E,6S,8R,9Z,12S,20R,21E,23Z,25Z,28S)-12,28-Bis[(3S,4E)-3-hydroxy-2-methylhex-4-en-2-yl]-20-methoxy-13,17,29,33-tetraoxa-34,35-diazatetracyclo[29.2.1.1^15,18.0^6,8]pentatriaconta-1 (34),2,4,9,15,18 (35),21,23,25,31-decaene-14,30-dione], the IC50 was 0.47 nM in data set [2] (Homo sapiens) and 0.11 nM in data set [4] (Homo sapiens). The IC50 at 72 h in data set [3] came to 0.06 nM.
As to `C/C=C/[C@H](O)C(C)(C)[C@@H]1C\C=C/C=C\C=C\[C@H](OC)Cc2nc(co2)C(=O)O[C@H](C(C)(C)[C@@H](O)/C=C/C)C/C=C\[C@H]2O[C@H]2/C=C/C=C\c2nc(co2)C(=O)O1` [Disorazole A1, (2Z,4E,6S,8R,9Z,12S,20R,21E,23Z,25Z,28S)-12,28-Bis[(3S,4E)-3-hydroxy-2-methylhex-4-en-2-yl]-20-methoxy-7,13,17,29,33-pentaoxa-34,35-diazatetracyclo[29.2.1.1^15,18.0^6,8]pentatriaconta-1 (34),2,4,9,15,18 (35),21,23,25,31-decaene-14,30-dione], the IC50 in data set [5] was 0.0071 nM; with lung cancer cell lines, 0.0023 nM; in data set [6], 0.0049 nM.
`CC[C@H](C)[C@@H]([C@@H](CC(=O)N1CCC[C@H]1[C@H](OC)[C@@H](C)C(=O)N[C@H](C)[C@@H](O)c1ccccc1)OC)N(C)C(=O)[C@@H](NC(=O)[C@@H](NC)C(C)C)C(C)C` [MMAE, monomethyl auristatin E] (H-[NMeV]V[Dil][Dolaproine]-X1): the IC50 in data set [2] came to 106 nM; in data set [4] it was 0.51 nM.
